PubChem BioAssay AID1194 (EPA DSSTox, 2008)
Active and inactive are the calls of the source.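 Rule for the calls: active = chemicals rated mutagenic or weakly mutagenic in the Salmonella bacterial test by one literature review, or positive overall by another; inconclusive = no clear call, values can overlap the other calls; inactive = the rest.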

Test system: Salmonella typhimurium Ames mutagenicity, literature compiled
Assay: DSSTox (CPDBAS) Carcinogenic Potency Database Salmonella Mutagenicity
Summary of the method: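 Calls derive from published evaluations rather than new testing; overall "positive" in EPA Gene-Tox, or "mutagenic"/"weakly mutagenic" per Zeiger, counts as active.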

| SMILES | outcome |
| --- | --- |
| OC[C@H]1O[C@@](CO)(O[C@H]2O[C@H](CO)[C@@H](O)[C@H](O)[C@H]2O)[C@@H](O)[C@@H]1O | inactive; active |
| CC/C(=C(/CC)c1ccc(O)cc1)c1ccc(O)cc1 | inactive |
| O=P(OC(CCl)CCl)(OC(CCl)CCl)OC(CCl)CCl | active |
| COP(=O)(OC)C(O)C(Cl)(Cl)Cl (stereo unspecified) | active |
| ClC1=C(Cl)C2(Cl)C3C(Cl)C=CC3C1(Cl)C2(Cl)Cl (stereo unspecified) | inactive; active |
| OO | active |
| c1ccc(Nc2ccc3ccccc3c2)cc1 | inactive; active |
| Nc1ccc(Cl)c(N)c1 | active; inactive |
| O=[N+]([O-])c1ccc2ncccc2c1 | active |
| CCOC(=O)CC(SP(=S)(OC)OC)C(=O)OCC (stereo unspecified) | inactive |
| CCCCCCCCS(=O)C(C)Cc1ccc2c(c1)OCO2 (stereo unspecified) | inactive; active |
| CN(CCc1ccccc1)N=O | active |
| CC(Cl)Cl | inactive; active |
| Cc1ccc(N)cc1 | active |
| ClC1(Cl)C2(Cl)C3(Cl)C4(Cl)C(Cl)(Cl)C5(Cl)C3(Cl)C1(Cl)C5(Cl)C24Cl (stereo unspecified) | inactive |
| NCCS(=O)(=O)O | inactive; active |
| O=NN1CCCC1 | active |
| CCC1(c2ccccc2)C(=O)N=C(O)NC1=O (stereo unspecified) | inactive |
| CN(N=O)c1ccncc1 | inactive; active |
| CC(=O)C(N=Nc1ccc(-c2ccc(N=NC(C(C)=O)C(=O)Nc3ccccc3)c(Cl)c2)cc1Cl)C(=O)Nc1ccccc1 (stereo unspecified) | inactive |
| Clc1ccccc1 | inactive; active |
| CC(=O)Nc1nnc(-c2ccc([N+](=O)[O-])o2)s1 | active |
| CC1=C2C(=CO[C@@H](C)[C@@H]2C)C(=O)C(C(=O)O)=C1O | inactive; active |
| O.O=S(=O)([O-])[O-].[Mn+2] | inactive; active |
| OC(c1ccc(Cl)cc1)(c1ccc(Cl)cc1)C(Cl)(Cl)Cl | inactive; active |
| Clc1ccc2c(c1)Oc1ccc(Cl)cc1O2 | inactive |

| SMILES | outcome |
| --- | --- |
| COS(C)(=O)=O | active |
| Cc1cc(O)c(C)c2c1OC(C)(CCCC(C)CCCC(C)CCCC(C)C)CC2 (stereo unspecified) | inactive; active |
| CN(C)c1ccc(C(=N)c2ccc(N(C)C)cc2)cc1 | active |
| Nc1ccc(Sc2ccc(N)cc2)cc1 | active; inactive |
| CC(N)Cc1ccccc1 (stereo unspecified) | inactive |
| CCN(Cc1cccc(S(=O)(=O)O)c1)c1ccc(C(=C2C=CC(=[N+](CC)Cc3cccc(S(=O)(=O)O)c3)C=C2)c2ccc(O)cc2S(=O)(=O)[O-])cc1 | inactive; active |
| ClCc1ccccc1 | active |
| O=P1(N(CCCl)CCCl)NCCCO1 (stereo unspecified) | active |
| CN(CCCC(=O)O)N=O | inactive |
| CN(N=O)c1cccnc1 | inactive; active |
| NC(=S)Nc1cccc2ccccc12 | active; inactive |
| CCCC[N+](=O)[O-] | inactive; active |
| ClC/C=C/CCl | active; inactive |
| Cc1cc(C)c(S(=O)(=O)O)cc1N=Nc1cc(S(=O)(=O)O)c2ccccc2c1O | inactive; active |
| Nc1c(Br)cc(Br)c2c1C(=O)c1ccccc1C2=O | active |
| Cc1ccc(S(=O)(=O)NC(=O)NN2CCCCCC2)cc1 | inactive; active |
| C=CCN=C=S | active |
| O=C(O)C(Cl)Cl | active |
| O=C1CCc2ccccc2O1 | inactive; active |
| Nc1ccc(N=Nc2ccc(-c3ccc(N=Nc4c(S(=O)(=O)O)cc5cc(S(=O)(=O)O)c(N=Nc6ccccc6)c(O)c5c4N)cc3)cc2)c(N)c1 | active |
| ClC(Cl)=C(Cl)C(Cl)=C(Cl)Cl | inactive; active |
| ClC1=C(Cl)[C@@]2(Cl)[C@@H]3[C@@H](Cl)[C@H](Cl)C[C@@H]3C1(Cl)C2(Cl)Cl | inactive; active |
| Nc1ccc(N=Nc2ccccc2)c(N)n1 | inactive |
| CCCCN(N=O)C(N)=O | active |
| C=CC(=O)NCO | inactive |
